Here are results for 8 compounds from ChEMBL document CHEMBL1201862, “PubChem BioAssay data set” (2004).

Molecules are shown by their SMILES.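 Results reflect a 48-hour exposure of cells in 96-well plates to compound at five concentrations. GI50: concentration for 50% inhibition of growth.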 Activity calls are given as the source filed them. No stated cut-off is given here; in the data, active = GI50 up to about 1.1 µM and inactive = higher.

Some test systems named below: UACC-62; CAKI-1; KM12; SK-MEL-2; NCI-H460; UO-31; LXFL 529; Malme-3M; UACC-257; HOP-92; MOLT-4; OVCAR-5; EKVX; OVCAR-3; SF-295; HCT-15; HCT-116; HT-29.
Common to all, as to assay: NCI anticancer screen, dose series, 48 h

Turning to `O=C(O)C1C2CC3CC2CC31` (stereo not given), the GI50 in the test with UACC-62, in the test with CAKI-1, in the test with KM12, in the test with SK-MEL-2, in the test on NCI-H460 and in the test with UO-31 was > 100 µM (inactive) in each case. The GI50 with LXFL 529, with Malme-3M, in the test on UACC-257, in the test with HOP-92, with MOLT-4 and in the test with OVCAR-5 was > 100 µM (inactive) throughout. The GI50 in the test on EKVX was > 100 µM (inactive); in the test with OVCAR-3, > 100 µM (inactive); in the test on SF-295, > 100 µM (inactive); with HCT-15, > 100 µM; in the test on HCT-116, > 100 µM (inactive).
In the case of `CC1(c2cccc(N)c2)C2C(=O)NC(=O)C1C(=O)NC2=O` (stereo not given), the GI50 in the test with UACC-62 was 33.3 µM (inactive); in the test on CAKI-1, 61.9 µM (inactive); in the test with KM12 it was 23.6 µM (inactive); in the test on SK-MEL-2, 24.3 µM (inactive); with NCI-H460, 33 µM (inactive); in the test with UO-31, 22.3 µM (inactive). For the same compound, the GI50 in the test on LXFL 529 was 32.2 µM (inactive); in the test with Malme-3M, 31.1 µM (inactive); in the test with UACC-257, 37.9 µM (inactive); in the test with HOP-92, 22.9 µM (inactive); in the test on MOLT-4, 18 µM (inactive); in the test on OVCAR-5, 38.6 µM (inactive). Moreover, the GI50 was 45 µM (inactive) in the test on EKVX; 21.7 µM (inactive) in the test on OVCAR-3; 22.4 µM (inactive) in the test on SF-295; 29.4 µM (inactive) with HT-29; 36.2 µM in the test with HCT-15.
In the case of `C/C(CCn1[nH]c(=O)ccc1=O)=N\NC(=O)C(N)=O`, the GI50 with UACC-62, in the test with CAKI-1, in the test with KM12, in the test with SK-MEL-2, in the test on NCI-H460 and in the test with UO-31 was > 100 µM (inactive) in each case. For the same compound, the GI50 with LXFL 529, with Malme-3M, with UACC-257, in the test with HOP-92, with OVCAR-5 and with EKVX was > 100 µM (inactive) throughout. The GI50 with OVCAR-3 is > 100 µM (inactive); with SF-295, > 100 µM (inactive); in the test on HT-29 it was > 100 µM (inactive); in the test with HCT-15, > 100 µM; in the test with HCT-116, > 100 µM (inactive).
For `Cc1nc(Nc2ccc([N+](=O)[O-])cc2)sc1C(/C=C/c1ccc(N(C)C)cc1)=N/NC(=O)c1ccccc1`, the GI50 in the test with UACC-62 is 4.84 µM (inactive); with CAKI-1 it was > 100 µM (inactive); in the test on KM12 it was 36.4 µM (inactive); with SK-MEL-2, 92 µM (inactive); in the test with NCI-H460 it was 59.6 µM (inactive); with UO-31 it was 89.3 µM (inactive). In addition, the GI50 with LXFL 529 was 29.1 µM (inactive); with Malme-3M, 70 µM (inactive); in the test on UACC-257, 82.2 µM (inactive); with HOP-92 it was 6.82 µM (inactive); in the test with MOLT-4, 41.9 µM (inactive); with OVCAR-5 it was > 100 µM (inactive). In addition, the GI50 with EKVX was 41.2 µM (inactive); in the test with OVCAR-3 it was > 100 µM (inactive); in the test on SF-295, 56 µM (inactive); in the test with HT-29, 39.1 µM (inactive); with HCT-15, 29.6 µM; with HCT-116 it was 63.7 µM (inactive).
On to `Cc1c(Cl)cccc1N1C(=O)C(Cl)=C(Cl)C1=O`, for which the GI50 was > 100 µM (inactive) in the test on UACC-62; > 51.8 µM (inactive) in the test with CAKI-1; > 100 µM (inactive) in the test on KM12; > 100 µM (inactive) in the test with SK-MEL-2; > 100 µM (inactive) with NCI-H460; > 100 µM (inactive) in the test with UO-31. Also, the GI50 in the test on LXFL 529 is > 75.7 µM (inactive); in the test with Malme-3M, > 100 µM (inactive); with UACC-257, > 100 µM (inactive); with HOP-92, > 73.8 µM (inactive); with MOLT-4, 17.1 µM (inactive); in the test on OVCAR-5, > 100 µM (inactive). The GI50 with EKVX is > 100 µM (inactive); with OVCAR-3, > 100 µM (inactive); with SF-295, > 100 µM (inactive); in the test with HT-29, > 100 µM (inactive); in the test on HCT-15, > 76.9 µM; in the test with HCT-116, > 100 µM (inactive).
Take `CCOC(=O)c1cn(Cc2ccccc2)c(=O)n1Cc1ccccc1`: the GI50 in the test with UACC-62 is > 100 µM (inactive); with CAKI-1, 77.1 µM (inactive); in the test on KM12, > 100 µM (inactive); with SK-MEL-2, > 100 µM (inactive); in the test on NCI-H460 it was > 100 µM (inactive); with UO-31 it was 48.9 µM (inactive). Moreover, the GI50 with LXFL 529 is > 100 µM (inactive); with Malme-3M it was > 100 µM (inactive); in the test on UACC-257 it was > 100 µM (inactive); in the test with HOP-92 it was > 100 µM (inactive); in the test with MOLT-4, 35 µM (inactive); in the test on OVCAR-5, > 100 µM (inactive). The GI50 is > 100 µM (inactive) in the test on EKVX; > 100 µM (inactive) in the test on OVCAR-3; 67.1 µM (inactive) in the test with SF-295; > 100 µM (inactive) with HT-29; 80.2 µM with HCT-15; > 100 µM (inactive) in the test with HCT-116.
In the case of `COc1ccc2c(c1)C(=O)C1CC(=O)CCC21` (stereo not given), the GI50 in the test with UACC-62, in the test on CAKI-1, in the test on KM12, in the test on SK-MEL-2, in the test with NCI-H460 and in the test with UO-31 was > 100 µM (inactive) each time. Besides, the GI50 with LXFL 529, in the test on Malme-3M, with UACC-257, with HOP-92, in the test on MOLT-4 and with OVCAR-5 was > 100 µM (inactive) in each case. For the same compound, the GI50 in the test with EKVX was > 100 µM (inactive); in the test on OVCAR-3 it was > 100 µM (inactive); in the test with SF-295, > 100 µM (inactive); with HT-29, > 100 µM (inactive); with HCT-15 it was > 100 µM; in the test with HCT-116, > 100 µM (inactive).
With `COc1cc(C=O)c(-c2cc3c(cc2C=O)OCO3)c(OC)c1OC`, the GI50 with UACC-62 was 90.6 µM (inactive); in the test with CAKI-1, 76.9 µM (inactive); with KM12 it was 59.3 µM (inactive); in the test with SK-MEL-2, 65.6 µM (inactive); in the test with NCI-H460 it was 103 µM (inactive); in the test with LXFL 529 it was 78 µM (inactive). Further, the GI50 was 96.6 µM (inactive) with Malme-3M; 123 µM (inactive) with UACC-257; 29.6 µM (inactive) in the test with HOP-92; 96.2 µM (inactive) with MOLT-4; > 290 µM (inactive) with OVCAR-5; 178 µM (inactive) with EKVX. Further, the GI50 was 56.6 µM (inactive) in the test on OVCAR-3; 70 µM (inactive) in the test with SF-295; 79.6 µM (inactive) with HT-29; 73.3 µM in the test on HCT-15; 64.3 µM (inactive) in the test with HCT-116.
